Test results: patent US7442501B2, “SQV nucleic acids and polypeptides” (Massachusetts Institute of Technology, priority 2002, dated 2008)

Legend:
chondroitin synthase [1] = target: T1, chondroitin synthase (Caenorhabditis elegans, UniProt Q7Z1Z1); assay: GlcAT (glucuronyl transferase) assay of chondroitin synthase activity in worm protein extracts; format: biochemical
T1 construct: wild-type (N2) animals were used to prepare worm protein extracts; from tissue; host or cells: whole C. elegans hermaphrodites (young adults), sonicated protein extract
T1 sequence (Q7Z1Z1 1-736): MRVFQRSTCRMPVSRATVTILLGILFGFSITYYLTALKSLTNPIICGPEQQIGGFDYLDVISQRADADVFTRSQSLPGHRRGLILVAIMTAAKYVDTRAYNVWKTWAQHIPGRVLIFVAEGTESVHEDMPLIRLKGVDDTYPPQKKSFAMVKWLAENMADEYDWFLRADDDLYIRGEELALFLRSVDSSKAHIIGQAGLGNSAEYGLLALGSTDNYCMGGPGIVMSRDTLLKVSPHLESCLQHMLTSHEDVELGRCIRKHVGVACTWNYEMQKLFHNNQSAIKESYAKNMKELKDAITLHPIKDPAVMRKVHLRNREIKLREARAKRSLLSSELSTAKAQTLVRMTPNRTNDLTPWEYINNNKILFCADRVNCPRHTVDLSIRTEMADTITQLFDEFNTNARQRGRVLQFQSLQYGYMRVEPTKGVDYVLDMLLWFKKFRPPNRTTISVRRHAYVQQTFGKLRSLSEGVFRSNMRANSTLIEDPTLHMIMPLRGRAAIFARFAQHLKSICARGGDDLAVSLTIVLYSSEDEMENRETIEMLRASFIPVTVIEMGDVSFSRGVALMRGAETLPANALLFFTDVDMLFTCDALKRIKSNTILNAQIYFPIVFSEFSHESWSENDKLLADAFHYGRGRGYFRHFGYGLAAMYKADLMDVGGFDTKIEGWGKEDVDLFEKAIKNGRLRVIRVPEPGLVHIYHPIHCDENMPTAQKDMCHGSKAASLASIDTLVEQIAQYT
Procedure: (§1) sqv-5(n3611), sqv-5(n3611)/hT2, and wild-type (N2) animals were used to prepare worm protein extracts. These extracts were tested for chondroitin synthase activity using standard methods, for example, in DeAngelis et al., (J. Biol. Chem. 27:24124-24129, 2000).
(§2) A desulfated chondroitin acceptor was used for the GalNAcT (N-acetylgalactosamyl transferase) assay. Desulfated and β-glucuronidase-treated chondroitin acceptor was used for the GlcAT (glucuronyl transferase) assay.
(§3) The enzymatic activity of SQV-5 was assayed as follows. SQV-5(n3611), sqv-5(n3611)/hT2, and wild-type N2 hermaphrodites were picked as L4 larvae by visual examination of the vulva using a dissecting microscope. The worms staged were allowed to grow for an additional twenty-three to twenty-seven hours at 22° C., re-examined, then transferred to 1.7-ml plastic tubes containing sterile water. The staged worms were washed once with water and twice with 50 mM Tris, pH 7.5, then frozen in a 50 μl volume using liquid nitrogen, and stored at −70° C.
(§4) Worm extracts were assayed for GIcAT glucoronosyltransferase activity by combining 1.3×10^5 cpm UDP-^3H-glucuronic acid donor (NEN), 6 μg β-glucuronidase-treated chondroitin acceptor, and 2.7 μg worm extract in a 25 μl reaction volume containing 0.05% Triton X-100, 10 mM MnCl2, and 100 μM ATP, pH 6.5. GalNAcT activity was detected by combining 1.3 to 3×10^5 cpm UDP-^3H-GalNAc donor (NEN), 12 μg chondroitin acceptor, and 6.7 μg worm extract in a 25 μl reaction volume containing 0.05% Triton X-100 and 10 mM MnCl2, pH 6.5. […] Pelleted material was resuspended in water and counted by liquid scintillation.
(§5) The chondroitin acceptor used was prepared as follows. […] Uronic acid concentration of both preparations was determined by the Carbazole method (Bitter, et al., Anal. Biochem. 4:330-334, 1962).

chondroitin synthase [2] = assay: as above; format: biochemical; details: extract genotype sqv-5/sqv-5 (sqv-5(n3611))
Procedure: as §1, §2, §3, §4, §5

SMILES: O=C(O)[C@H]1O[C@H](OP(=O)(O)OP(=O)(O)OC[C@H]2O[C@@H](n3ccc(=O)[nH]c3=O)[C@H](O)[C@@H]2O)[C@H](O)[C@@H](O)[C@@H]1O [UDP-glucuronic acid]
- CPM (chondroitin synthase [1]; extract genotype +/+ (wild-type)): 1820 CPM
- CPM (chondroitin synthase [1]; extract genotype +/sqv-5 (sqv-5(n3611)/hT2)): 1369 CPM
- CPM (chondroitin synthase [2]): 109 CPM
